The values below come from PubChem BioAssay AID1996.

Each structure is given as a SMILES string. Values after ≈ are worked out from the molar mass of the structure shown.

The conditions of the series: buffer; pH 7.4; 200.0 µM.
What is called kinetic solubility is solubility judged after dilution from a stock solution rather than from solid. Compound `Cc1noc(C)c1COC(=O)/C=C/c1ccc(Cl)cc1` displayed a kinetic solubility of 0.0064 mg/mL (≈ 21.9 µM).

For the compound `CC(=O)Nc1ccc(NC(=O)CCCn2cnc3ccccc3c2=O)cc1`, the solubility (kinetic) was found to be 0.0491 mg/mL (≈ 135 µM).

Turning to `COc1cccc(CN(C)C(=O)c2csc3c2CCCC3)c1OC`, the kinetic solubility stood at 0.0465 mg/mL (≈ 135 µM).

Take `O=C(O)/C=C/C(=O)Nc1ccc(OC(F)(F)F)cc1Br`: the solubility (kinetic) was above 0.0531 mg/mL.

Compound `CC(C)c1ccc(C(=O)NCCCNC(=O)c2cnccn2)cc1` had a kinetic solubility above 0.049 mg/mL.

Compound `Cc1cc(NC(=O)CSc2ccccn2)no1` registered a solubility (kinetic) above 0.0374 mg/mL.

On to `CC(C)CC(=O)C1=C(O)C(=O)N(Cc2ccccc2)C1c1ccccc1` (stereo not given), for which the solubility (kinetic) was found to be 0.0473 mg/mL (≈ 135 µM).

Take `COC(=O)Nc1sc2c(c1C(N)=O)CCC(C)C2` (stereo not given): the solubility (kinetic) turned out to be 0.005 mg/mL (≈ 18.6 µM).

For the compound `O=C(NCCc1ccccc1)C(=O)c1c[nH]c2ccccc12`, the solubility (kinetic) worked out at 0.0004 mg/mL (≈ 1.37 µM).

Compound `O=C(O)c1cccc(S(=O)(=O)Nc2ccc(Cc3ccncc3)cc2)c1` gave a kinetic solubility above 0.0553 mg/mL.

Regarding `O=C(COC(=O)c1cccs1)NCCc1ccc(F)cc1`, the kinetic solubility came to 0.0422 mg/mL (≈ 137 µM).

For `Br.CCCN(CCC)C1CCc2cccc(O)c2C1` (stereo not given), the kinetic solubility was above 0.0492 mg/mL.

With `COc1ccc(CCNCc2ccccc2F)cc1.O=C(O)C(=O)O`, the solubility (kinetic) worked out at 0.0464 mg/mL.

For `O=C(NCc1ccc2c(c1)OCO2)c1cc([N+](=O)[O-])ccc1N1CCOCC1`, the solubility (kinetic) was above 0.0578 mg/mL.

Consider `Cc1cc(C(=O)CCC(=O)Nc2ncccc2O)c(C)s1`, for which the kinetic solubility was above 0.0457 mg/mL.

As for `CSc1nc2sc3c(c2c(=O)[nH]1)CC(C)(C)OC3`, the kinetic solubility was determined as 0.0139 mg/mL (≈ 49.2 µM).

Regarding `Nc1nc(Nc2ccccc2)nc(NCc2ccccc2)c1[N+](=O)[O-]`, the solubility (kinetic) is 0.0002 mg/mL (≈ 0.595 µM).

`Fc1ccc(OCc2nc(-c3cccs3)no2)cc1` had a kinetic solubility of 0.0008 mg/mL (≈ 2.9 µM).

`O=C1/C(=C/c2ccccc2Cl)N2CCC1CC2` returned a solubility (kinetic) of 0.0228 mg/mL (≈ 92 µM).

In turn, `Cn1ccnc1SCC(=O)Nc1cccc(C#N)c1` came in with a kinetic solubility above 0.0408 mg/mL.

In the case of `N/C(CN1CCSCC1)=N\OCc1c(F)cccc1Cl`, the kinetic solubility turned out to be 0.0404 mg/mL (≈ 127 µM).

The compound `CN(C)c1ccc(N2C(=O)CC(c3ccccc3)CC2=O)cc1` showed a solubility (kinetic) of 0.0123 mg/mL (≈ 39.9 µM).

On to `Cc1cccc(Oc2c([N+](=O)[O-])c(=O)n(C)c3ccccc23)c1`, for which the solubility (kinetic) is 0.0066 mg/mL (≈ 21.3 µM).

In turn, `CCc1sc(C(=O)Nc2ncccc2C)cc1C` gave a solubility (kinetic) above 0.0391 mg/mL.

In turn, `COc1cc2ccccc2cc1C(=O)NC1CCCC1` gave a solubility (kinetic) above 0.0404 mg/mL.

In turn, `C=CCC1(Nc2ccccc2)CC(C)N(C)CC1C.O=C(O)C(=O)O` (stereo not given) returned a solubility (kinetic) above 0.0523 mg/mL.

For `O=C(O)c1cccc(S(=O)(=O)N2CCN(c3ccccn3)CC2)c1`, the solubility (kinetic) is above 0.0521 mg/mL.

In turn, `COCCN1CCn2c(nc3cc(NC(C)=O)ccc32)C1` came in with a solubility (kinetic) of 0.0364 mg/mL (≈ 126 µM).

The compound `O=C1NC(=S)S/C1=C\c1ccc2ccccc2c1` had a kinetic solubility of 0.0011 mg/mL (≈ 4.05 µM).

Take `Cc1cccc(NC(=O)CCCCC(=O)Nc2cccc(C)c2)c1`: the kinetic solubility is below 0.0003 mg/mL.

In the case of `Cc1ccc(CNC(=O)CCCN2C(=S)NC(C)(C)CC2C)cc1` (stereo not given), the kinetic solubility is 0.037 mg/mL (≈ 106 µM).

With `CC1CCCN(C(=O)COc2ccc3c(c2)OCO3)C1` (stereo not given), the kinetic solubility is above 0.0416 mg/mL.

With `CCN(CC)CCN(C(=O)/C=C/c1cccs1)c1nc2ccc(Cl)cc2s1.Cl`, the solubility (kinetic) was below 0.0003 mg/mL.

On to `Cc1ccc(S(=O)(=O)N(C)C)cc1NC(=O)C1CCCCC1`, for which the solubility (kinetic) was above 0.0487 mg/mL.

As to `CN(C)CCNc1ncnc2sc(-c3ccccc3)cc12`, the kinetic solubility stood at 0.0397 mg/mL (≈ 133 µM).

As to `Cc1cccc(NC(=O)CN2CCSc3ccccc32)c1`, the solubility (kinetic) was 0.0052 mg/mL (≈ 17.4 µM). This solubility kinetic is about 7.6-fold lower than that of the compound before.

`Cc1cc(C)c(S(=O)(=O)Cc2ccccc2)c(OC(C)C)n1` displayed a kinetic solubility of 0.026 mg/mL (≈ 81.4 µM).

`Cn1c(C(=O)N2CCOCC2)cc2c(=O)n3ccccc3nc21` showed a solubility (kinetic) above 0.0468 mg/mL.

As for `CCC(=O)NN1CCN(c2ccncc2S(=O)(=O)N2CCCCC2)CC1`, the kinetic solubility is above 0.0572 mg/mL.

Compound `CNCC(=O)O` registered a kinetic solubility of 0.0056 mg/mL (≈ 62.9 µM).

With `O=C(CN1c2cccc3cccc(c23)S1(=O)=O)N1CCCCC1`, the kinetic solubility is above 0.0496 mg/mL.

In turn, `O=C(O)C1CCCN(S(=O)(=O)c2ccccc2[N+](=O)[O-])C1` (stereo not given) displayed a kinetic solubility of 0.0365 mg/mL (≈ 116 µM).

As to `COCCNc1ncnc2c1cnn2Cc1ccccc1Cl`, the kinetic solubility is above 0.0477 mg/mL.

Regarding `CCCOc1ccc(C(=O)Nc2ccc3c(c2)OCO3)cc1`, the solubility (kinetic) was found to be 0.001 mg/mL (≈ 3.34 µM).

Take `O=C(NCCc1ccccc1)c1cnc(Cl)c(Cl)c1`: the solubility (kinetic) stood at 0.0116 mg/mL (≈ 39.3 µM). Compared with the last compound, the solubility kinetic is about 12-fold higher.

For `CC(NC(=O)c1c(O)c2ccccc2[nH]c1=O)c1ccccc1` (stereo not given), the solubility (kinetic) is below 0.0003 mg/mL.

`Cc1ccc(CN2C(=O)c3ccccc3NC2c2ccccn2)cc1` (stereo not given) had a kinetic solubility above 0.0494 mg/mL.

`COc1cc(Cl)c(C)cc1NC(=O)CSc1nnc(CN2CCCC2)o1`: the solubility (kinetic) was above 0.0595 mg/mL.

`CN(C(=O)CSc1nc2c(c(=O)[nH]1)CCC2)c1ccccc1` yielded a solubility (kinetic) above 0.0473 mg/mL.

Regarding `O=C(O)c1c2c(nc3ccccc13)/C(=C/c1ccc(O)cc1)CCC2`, the solubility (kinetic) is above 0.0497 mg/mL.

As to `Cc1ccnc(SCC(=O)Nc2cccc(S(=O)(=O)N3CCOCC3)c2)n1`, the solubility (kinetic) is above 0.0613 mg/mL.

The compound `CC(=O)c1ccc(-c2ccc(C(=O)NCC3CCCO3)o2)cc1` (stereo not given) returned a solubility (kinetic) above 0.047 mg/mL.

As for `O=C(CCC(=O)N1CCCCCC1)Nc1ccc([N+](=O)[O-])cc1`, the solubility (kinetic) was 0.0092 mg/mL (≈ 28.8 µM).

Consider `COc1ccc(-c2noc(-c3cccs3)n2)cc1OC`, for which the kinetic solubility was 0.0005 mg/mL (≈ 1.73 µM).

As to `COc1ccc(NCCC(O)c2ccc(Cl)cc2)cc1` (stereo not given), the kinetic solubility came to 0.0405 mg/mL (≈ 139 µM).

In the case of `CC(=O)NCCc1ccc(C(=O)COC(=O)C2CCCCC2)cc1`, the kinetic solubility stood at 0.0334 mg/mL (≈ 101 µM).

`CCOc1ccc(CCNC(=O)CCC(=O)c2cccs2)cc1OCC`: the kinetic solubility was above 0.0563 mg/mL.

As for `Cl.OC(CNCc1cccnc1)COc1ccc2ccccc2c1` (stereo not given), the solubility (kinetic) is 0.0435 mg/mL.

`Cc1cc(C)n2nc(SC(C)C(=O)N(C)C3CCCCC3)nc2n1` (stereo not given) yielded a solubility (kinetic) above 0.0521 mg/mL.

`Cc1ccc(NC2=NC(c3ccc(F)cc3)n3c(nc(C)cc3=O)N2)cc1` (stereo not given) had a kinetic solubility of 0.005 mg/mL (≈ 13.8 µM).

Take `O=C(O)c1cc2[nH]c3c(c2cc1Cl)CCCC3`: the kinetic solubility is above 0.0375 mg/mL.

Compound `Cc1cccc(N2C(=O)CN(Cc3cccs3)C2=S)c1` returned a kinetic solubility of 0.0046 mg/mL (≈ 15.2 µM).

`N=c1oc2ccccc2cc1C(=O)NCc1ccccc1` gave a solubility (kinetic) of 0.0067 mg/mL (≈ 24.1 µM).

In turn, `O=C(c1ccccc1)N1CCN(c2ncccn2)CC1` had a solubility (kinetic) above 0.0402 mg/mL.

`CCCCCCCc1c(O)nc(SCCN(C)C)[nH]c1=O.Cl` registered a kinetic solubility above 0.0525 mg/mL.

As for `Cc1ccc(CNC(=O)Cn2cccc2)cc1`, the kinetic solubility is above 0.0342 mg/mL.

In turn, `O=C(COC(=O)COc1cc(Cl)c(Cl)cc1Cl)NC1CC1` had a kinetic solubility of 0.0236 mg/mL (≈ 66.9 µM).

As to `CCC(CC)C(=O)c1c[nH]c(C(=O)NC2CCCCCC2)c1`, the solubility (kinetic) turned out to be 0.002 mg/mL (≈ 6.57 µM).

Compound `CCC(C)c1ccc(S(=O)(=O)N2CCN(c3ccccn3)CC2)cc1` (stereo not given) yielded a kinetic solubility below 0.0003 mg/mL.

Compound `CC1CCN(C(=O)NC(=O)c2ccccc2)CC1` gave a solubility (kinetic) above 0.0369 mg/mL.

`O=C(NCCCCNC(=O)C(F)(F)F)C(F)(F)F` displayed a solubility (kinetic) above 0.042 mg/mL.

On to `O=C(CN1C(=O)NC2(CCOc3ccccc32)C1=O)N1CCCCC1` (stereo not given), for which the solubility (kinetic) is above 0.0515 mg/mL.

The compound `COc1ccc(CCNC(=O)c2ccc(C)s2)cc1OC` yielded a kinetic solubility above 0.0458 mg/mL.

Turning to `O=C(OCC(=O)N1CCOCC1)c1ccc2ccccc2c1`, the kinetic solubility was above 0.0449 mg/mL.

`COc1ccc(NC(=O)C2C3CC/C=C\CCC32)cc1` (stereo not given) yielded a solubility (kinetic) below 0.0006 mg/mL.
